From US11427549B2, “Pyrimidinyloxy benzo-fused compounds as herbicides” (FMC Corporation, priority 2017, dated 2022)

Experiments:
[1] = system: foxtail, giant (giant foxtail, Setaria faberii); test: Test A postemergence, foxtail, giant; type: in vivo; details: Setaria faberi, post-emergence, 240 h, 0 to 100 scale (0 no effect, 100 complete control), read-out: Plant response rating, Foxtail, Giant; for pest or weed control at 31 g/ha: 31 g ai/ha; for pest or weed control at 125 g/ha: 125 g ai/ha
Excerpt: (§1) Seeds of plant species selected from barnyardgrass (Echinochloa crus-galli), kochia (Kochia scoparia), ragweed (common ragweed, Ambrosia elatior), ryegrass, Italian (Italian ryegrass, Lolium multiflorum), foxtail, giant (giant foxtail, Setaria faberii), foxtail, green (green foxtail, Setaria viridis) and pigweed (Amaranthus retroflexus) were planted into a blend of loam soil and sand and treated preemergence with a directed soil spray using test chemicals formulated in a non-phytotoxic solvent mixture which included a surfactant.
(§2) At the same time, plants selected from these weed species and also wheat (Triticum aestivum), corn (Zea mays), blackgrass (Alopecurus myosuroides), and galium (catchweed bedstraw, Galium aparine) were planted in pots containing the same blend of loam soil and sand and treated with postemergence applications of test chemicals formulated in the same manner. Plants ranged in height from 2 to 10 cm and were in the one- to two-leaf stage for the postemergence treatment. Treated plants and untreated controls were maintained in a greenhouse for approximately 10 days, after which time all treated plants were compared to untreated controls and visually evaluated for injury. […] A dash (-) response means no test result.

[2] = system: foxtail, giant (giant foxtail, Setaria faberii); test: Test A preemergence, foxtail, giant; type: in vivo; details: Setaria faberi, pre-emergence, 240 h, 0 to 100 scale (0 no effect, 100 complete control), read-out: Plant response rating, Foxtail, Giant; for pest or weed control at 31 g/ha: 31 g ai/ha; for pest or weed control at 125 g/ha: 125 g ai/ha
Excerpt: as §1, §2

SMILES | pest or weed control at 31 g/ha [1] | pest or weed control at 125 g/ha [1] | pest or weed control at 31 g/ha [2] | pest or weed control at 125 g/ha [2]
FC(F)(F)CCC1OCCc2cccc(Oc3ncc(Cl)cn3)c21 (centres unmarked) [Compound 32, 5-Chloro-2-[[3,4-dihydro-1-(3,3,3-trifluoropropyl)-1H-2-benzopyran-8-yl]oxy]pyrimidine] | 0% | 20% | 0% | 50%
FC(F)(F)CCCC1OCCc2cccc(Oc3ncc(Cl)cn3)c21 (centres unmarked) [Compound 27, 5-Chloro-2-[[3,4-dihydro-1-(4,4,4-trifluorobutyl)-1H-2-benzopyran-8-yl]oxy]pyrimidine] | 10% | 30% | 50% | 100%
O=C1OCc2cccc(Oc3ncc(Cl)cn3)c2C1CCC(F)(F)F (centres unmarked) [Compound 29, 5-[(5-Chloro-2-pyrimidinyl)oxy]-1,4-dihydro-4-(3,3,3-trifluoropropyl)-3H-2-benzopyran-3-one] | 0% | 10% | 0% | 20%
O=C1OCc2cccc(Oc3ncc(Cl)cn3)c2C1CCCC(F)(F)F (centres unmarked) [Compound 26, 5-[(5-Chloro-2-pyrimidinyl)oxy]-1,4-dihydro-4-(4,4,4-trifluorobutyl)-3H-2-benzopyran-3-one] | 0% | 20% | 0% | 60%
FC(F)(F)CC[C@@H]1OCc2cccc(Oc3ncc(Cl)cn3)c21 [Compound 21, 5-Chloro-2-[[(3S)-1,3-dihydro-3-(3,3,3-trifluoropropyl)-4-isobenzofuranyl]oxy]-pyrimidine] | 0% | 20% | 0% | 0%
O=C1OCC(CCC(F)(F)F)c2c(Oc3ncc(Cl)cn3)cccc21 (centres unmarked) [Compound 25, 5-[(5-Chloro-2-pyrimidinyl)oxy]-3,4-dihydro-4-(3,3,3-trifluoropropyl)-1H-2-benzopyran-1-one] | 0% | 30% | 20% | 90%
FC(F)(F)CCC1COc2cccc(Oc3ncc(Cl)cn3)c21 (centres unmarked) [Compound 36, 5-Chloro-2-[[2,3-dihydro-3-(3,3,3-trifluoropropyl)-4-benzofuranyl]oxy]pyrimidine] | 0% | 20% | 0% | 60%
O=C1CCC(CCCC(F)(F)F)c2c(Oc3ncc(Cl)cn3)cccc21 (centres unmarked) [Compound 30, 5-[(5-Chloro-2-pyrimidinyl)oxy]-3,4-dihydro-4-(4,4,4-trifluorobutyl)-1(2H)-naphthalenone] | 0% | 40% | 10% | 80%
O=C1c2cccc(Oc3ncc(Cl)cn3)c2C1CCCC(F)(F)F (centres unmarked) [Compound 22, 2-[(5-Chloro-2-pyrimidinyl)oxy]-8-(4,4,4-trifluorobutyl)bicyclo[4.2.0]octa-1,3,5-trien-7-one] | 0% | 40% | 10% | 70%
O=C1OCc2cccc(Oc3ncc(Cl)cn3)c2C1CCCCC(F)(F)F (centres unmarked) [Compound 34, 5-[(5-Chloro-2-pyrimidinyl)oxy]-1,4-dihydro-4-(5,5,5-trifluoropentyl)-3H-2-benzopyran-3-one] | 0% | 20% | 0% | 10%
O=C1c2cccc(Oc3ncc(Cl)cn3)c2C1CCC(F)(F)F (centres unmarked) [Compound 24, 2-[(5-Chloro-2-pyrimidinyl)oxy]-8-(3,3,3-trifluoropropyl)bicyclo[4.2.0]octa-1,3,5-trien-7-one] | 0% | 50% | 0% | 20%
